In patent US20230135093A1, “TRIAZOLYL DERIVATIVES AS GABA A ALPHA5 PAM” (Hoffmann-La Roche Inc., priority 2020, published 2023):

Tests used:
h-GABA-A α5β3γ2 [1] = molecular target: T1, h-GABA-A α5β3γ2 (Homo sapiens, UniProt P18507+P31644); test: [3H]flumazenil competition binding assay on membranes of HEK293 cells expressing GABAA receptors; conditions: Table 1; displacement of [3H]-Flumazenil (0.5 nM), HEK293 cells expressing human receptors, means of two determinations
T1 construct: expressed in transfected cells; host or cells: Xenopus laevis oocytes, micro-injected with subunit RNA
Method: The affinity of compounds at GABAA receptor subtypes was measured by competition for [3H]flumazenil (85 Ci/mmol; Roche) binding to HEK293 cells expressing rat (stably transfected) or human (transiently transfected) receptors of composition α1β3γ2, α2β3γ2, α3β3γ2 and α5β3γ2.
Cell pellets were suspended in Krebs-tris buffer (4.8 mM KCl, 1.2 mM CaCl2, 1.2 mM MgCl2, 120 mM NaCl, 15 mM Tris; pH 7.5; binding assay buffer), homogenized by polytron for ca. 20 sec on ice and centrifuged for 60 min at 4° C. (50000 g; Sorvall, rotor: SM24=20000 rpm). The cell pellets were resuspended in Krebs-tris buffer and homogenized by polytron for ca. 15 sec on ice. Protein was measured (Bradford method, Bio-Rad) and aliquots of 1 mL were prepared and stored at −80° C.
Radioligand binding assays were carried out in a volume of […] (96-well plates) which contained […] of cell membranes, [^3H]-Flumazenil at a concentration of 1 nM for α1, α2, α3 subunits and 0.5 nM for α5 subunits and the test compound in the range of […]. Nonspecific binding was defined by 10^−5 M diazepam and typically represented less than 5% of the total binding. Assays were incubated to equilibrium for 1 hour at 4° C. and harvested onto GF/C uni-filters (Packard) by filtration using a Packard harvester and washing with ice-cold wash buffer (50 mM Tris; pH 7.5). After drying, filter-retained radioactivity was detected by liquid scintillation counting. Ki values were calculated using Excel-Fit (Microsoft) and are the means of two determinations.
In a preferred embodiment the compounds of the invention are binding selective for the α5 subunit relative to the α1, α2 and α3 subunit. Representative test results, obtained by the above described assay measuring binding affinity to HEK293 cells expressing human (h) receptors, are shown in the Table below.

h-GABA-A α5β3γ2 [2] = molecular target: T1, h-GABA-A α5β3γ2; test: Two-electrode voltage clamp electrophysiology in Xenopus oocytes expressing GABAA receptors (modulation of GABA EC20 current); format: cell-based; conditions: Table 1; for Efficacy (GABA) %: % modulation of GABA EC20 = 100*(Fold increase-1); for Fold increase h-GABA-A α5β3γ2 oocyte: Xenopus oocytes, GABA EC20, test compound at approximatively 30 fold its Ki
Method: Xenopus laevis oocytes at maturation stages V-VI were used for the expression of cloned mRNA encoding GABAA receptor subunits. Oocytes ready for RNA micro-injection were bought from Ecocyte, Castrop-Rauxel, Germany and stored in modified Barth's medium (composition in mM: NaCl 88, KCl 1, NaHCO3 2.4, HEPES 10, MgSO4 0.82, CaNO3 0.33, CaCl2 0.33, pH=7.5) at 20° C. until the experiment.
Oocytes were plated in 96-well plates to be used in an automated instrument (Robo-ocyte, MultiChannelSystems, Reutlingen, Germany) for microinjection and electrophysiological recordings. Approximately 50 nl of an aqueous solution containing the RNA transcripts for the subunits of the desired GABAA receptor was injected into each oocyte. RNA concentrations ranged between 0.3 and 16 ng/μl/subunit and were adjusted in pilot experiments to obtain GABA responses of a suitable size and a maximal effect of the reference modulator, Beta-CCM (3-CCM), a betacarboline negative allosteric modulator (NAM) at the GABAA receptor benzodiazepine (BZD) binding site or Midazolam, a benzodiazepine positive allosteric modulator (PAM) at the GABAA receptor benzodiazepine (BZD) binding site. The concentration of the γ2 subunit encoding RNA usually was 5- to 10-fold higher than the RNAs encoding the other subunits. Oocytes were kept in modified Barth's medium (composition in mM: NaCl 88, KCl 1, NaHCO3 4, HEPES 10, MgSO4 0.82, CaNO3 0.33, CaCl2 0.33, pH=7.5) at 20° C. until the experiment.
Electrophysiological experiments were performed on days 3 to 5 after the micro-injection of mRNA. During the experiment the oocytes were constantly superfused by a solution containing (in mM) NaCl 90, KCl 1, HEPES 5, MgCl2 1, CaCl2 1 (pH 7.4). Oocytes were impaled by two glass microelectrodes (resistance: 0.4 MQ) which were filled with a solution containing KCl 1M+K-acetate 1.5 M and voltage-clamped to −80 mV. The recordings were performed at room temperature using the Roboocyte two-electrode voltage clamp system (Multichannelsystem). After an initial equilibration period of 1.5 min GABA was added for 1.5 min at a concentration evoking approximately 20% of a maximal current response (EC20). After another rest interval of 2.5 min GABA was again added evoking a response of similar amplitude and shape. 0.5 min after the onset of this second GABA application the test compound, at a concentration corresponding to approximatively 30 fold its Ki, was added while GABA was still present. Current traces were recorded at a digitization rate of 10 Hz during and shortly before and after the GABA application.
Each compound and concentration was tested on at least 3 oocytes. Different oocytes were used for different compound concentrations. β-CCM, a negative allosteric modulator, or Midazolam, a positive allosteric modulators, were tested on a few (3-6) oocytes on each 96-well plate for a positive control at a maximally effective. β-CCM inhibited the GABA-evoked current by approximatively 50% (Fold increase 0.5), while Midazolam potentiated the GABA-induced current by approximatively 150% (Fold increase 2.5).
For the analysis, the digitized current traces of the first and second GABA response were superimposed and, if necessary, rescaled to equal maximal amplitudes. The ratio between the two responses during the time interval of test compound application was calculated point by point. The extremum of the resulting “ratio trace” was taken as the efficacy (“Fold increase”) of the compound expressed as “% modulation of GABA EC20” (100*(Fold increase-1)).

| Structure (SMILES) | Ki (h-GABA-A α5β3γ2 [1]) [µM] | Efficacy (GABA) % (h-GABA-A α5β3γ2 [2]) [%] | Fold increase h-GABA-A α5β3γ2 oocyte (h-GABA-A α5β3γ2 [2]) |
| --- | --- | --- | --- |
| Cc1ccc(-c2nnn(C)c2Cn2ncc(N3CCCC3)cc2=O)cn1 [Example 8, 2-((3-methyl-5-(6-methyl-3-pyridyl)triazol-4-yl)methyl)-5-pyrrolidin-1-yl-pyridazin-3-one] | 0.0209 | 130 | 2.3 |
| C[C@@H]1CN(c2cnn(Cc3c(-c4ccc(Cl)cc4F)nnn3C)c(=O)c2)C[C@H](C)O1 [Example 3, 2-((5-(4-chloro-2-fluoro-phenyl)-3-methyl-triazol-4-yl)methyl)-5-(cis-2,6-dimethylmorpholin-4-yl)pyridazin-3-one] | 0.0012 | 124 | 2.24 |
| CC(C)N1CCN(c2cnn(Cc3c(-c4ccc(Cl)cc4)nnn3C)c(=O)c2)C[C@@H]1C [Example 40, 2-[[5-(4-chlorophenyl)-3-methyl-triazol-4-yl]methyl]-5-[(3S)-4-isopropyl-3-methyl-piperazin-1-yl]pyridazin-3-one] | 0.0202 | 103 | 2.03 |
| C[C@@H]1CN(c2cnn(Cc3c(-c4ccc(Cl)cc4)nnn3C)c(=O)c2)C[C@H](C)O1 [Example 30, 2-[[5-(4-chlorophenyl)-3-methyl-triazol-4-yl]methyl]-5-[(2R,6S)-2,6-dimethylmorpholin-4-yl]pyridazin-3-one] | 0.0031 | 110 | 2.1 |
| Cc1nnn(-c2ccc(Cl)cc2F)c1Cn1ncc(N2Cc3ccccc3C2)cc1=O [Example 24, 2-[[3-(4-chloro-2-fluoro-phenyl)-5-methyl-triazol-4-yl]methyl]-5-isoindolin-2-yl-pyridazin-3-one] | 0.0526 | 60 | 1.6 |
| CN(C)c1cnn(Cc2c(-c3ccc(Cl)cc3F)nnn2C)c(=O)c1 [Example 15, 2-[[5-(4-chloro-2-fluoro-phenyl)-3-methyl-triazol-4-yl]methyl]-5-(dimethylamino)pyridazin-3-one] | 0.0038 | 48 | 1.48 |
| CCn1nnc(-c2ccc(Cl)cc2F)c1Cn1ncc(N2CC(OC(C)(C)C)C2)cc1=O [Example 97, 5-(3-tert-butoxyazetidin-1-yl)-2-[[5-(4-chloro-2-fluoro-phenyl)-3-ethyl-triazol-4-yl]methyl]pyridazin-3-one] | 0.0451 | 115 | 2.15 |

Other lines, results leading:

| Ki (h-GABA-A α5β3γ2 [1]) [µM] | Efficacy (GABA) % (h-GABA-A α5β3γ2 [2]) [%] | Fold increase h-GABA-A α5β3γ2 oocyte (h-GABA-A α5β3γ2 [2]) | Structure (SMILES) |
| --- | --- | --- | --- |
| 0.023 | 73 | 1.73 | Cn1nnc(-c2ccc(C(F)(F)F)cc2F)c1Cn1ncc(N2CC3(CCCO3)C2)cc1=O [Example 75, 2-[[5-[2-fluoro-4-(trifluoromethyl)phenyl]-3-methyl-triazol-4-yl]methyl]-5-(5-oxa-2-azaspiro[3.4]octan-2-yl)pyridazin-3-one] |
| 0.0054 | 69 | 1.69 | Cn1nnc(-c2ccc(Cl)cc2F)c1Cn1ncc(N2CC(OC(F)F)C2)cc1=O [Example 53, 2-((5-(4-chloro-2-fluoro-phenyl)-3-methyl-triazol-4-yl)methyl)-5-(3-(difluoromethoxy)azetidin-1-yl)pyridazin-3-one] |
| 0.0555 | 141 | 2.41 | CCn1nnc(-c2ccc(Cl)cc2F)c1Cn1ncc(N2CC3(CC[C@@H](C)CO3)C2)cc1=O [Example 122, (R)-2-((4-(4-chloro-2-fluorophenyl)-1-ethyl-1H-1,2,3-triazol-5-yl)methyl)-5-(7-methyl-5-oxa-2-azaspiro[3.5]nonan-2-yl)pyridazin-3(2H)-one] |
| 0.0474 | 74 | 1.74 | CCOC1CN(c2cnn(Cc3c(-c4ncc(C(F)(F)F)cn4)nnn3C)c(=O)c2)C1 [Example 115, 5-(3-ethoxyazetidin-1-yl)-2-[[3-methyl-5-[5-(trifluoromethyl)pyrimidin-2-yl]triazol-4-yl]methyl]pyridazin-3-one] |
| 0.0114 | 72 | 1.72 | Cn1nnc(-c2ccc(Cl)cc2F)c1Cn1ncc(-c2cnn(CC(F)F)c2)cc1=O [Example 106, 2-((5-(4-chloro-2-fluoro-phenyl)-3-methyl-triazol-4-yl)methyl)-5-(1-(2,2-difluoro-ethyl)pyrazol-4-yl)pyridazin-3-one] |
| 0.0118 | 86 | 1.86 | Cn1nnc(-c2ccc(C(F)(F)F)cc2F)c1Cn1ncc(N2CC(OCC(F)(F)F)C2)cc1=O [Example 74, 2-[[5-[2-fluoro-4-(trifluoromethyl)phenyl]-3-methyl-triazol-4-yl]methyl]-5-[3-(2,2,2-trifluoro-ethoxy)azetidin-1-yl]pyridazin-3-one] |
| 0.0112 | 106 | 2.06 | Cn1nnc(-c2ccc(Cl)cc2F)c1Cn1ncc(N2CC(Oc3ccncn3)C2)cc1=O [Example 78, 2-[[5-(4-chloro-2-fluoro-phenyl)-3-methyl-triazol-4-yl]methyl]-5-(3-pyrimidin-4-yloxyazetidin-1-yl)pyridazin-3-one] |
| 0.0092 | 126 | 2.26 | CCn1nnc(-c2ccc(Cl)cc2F)c1Cn1ncc(N2CC(Oc3ccc(Cl)nc3)C2)cc1=O [Example 101, 2-[[5-(4-chloro-2-fluoro-phenyl)-3-ethyl-triazol-4-yl]methyl]-5-[3-[(6-chloro-3-pyridyl)oxy]azetidin-1-yl]pyridazin-3-one] |
